Assays:
[1] = tested on: HCT-116 (colon cancer); assay: MTT cell viability assay, HCT-116; assay type: cell-based, human; settings: for IC50: MTT assay, 72 h of incubation; for Selectivity Index (SI) HCT-116: IC50 value toward HaCaT cells/IC50 value toward HCT-116
How it was run: (§1)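 HCT-116 and HeLa cells in DMEM/10% FBS exposed 72 h to compounds over 1–100 µM. Viability by MTT (0.5 mg/mL, 2 h, 37 °C), formazan dissolved in DMSO and read at 550 nm; mean ± SD of at least three independent experiments.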

[2] = tested on: MCF-7 (breast cancer); assay: MTT cell viability assay, MCF-7; assay type: cell-based, human; settings: for IC50: Homo sapiens, MCF7, 72 h, MTT assay, 72 h of incubation; for Selectivity Index (SI) MCF-7: IC50 value toward HaCaT cells/IC50 value toward MCF-7
How it was run: (§2)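 Cells in DMEM with 10% FBS, 3 × 10^3 per well, exposed to compounds at 1–100 µM for 72 h at 37 °C. MTT at 0.5 mg/mL for 2 h, formazan dissolved in DMSO and read at 550 nm. Mean ± SD of at least three independent experiments, each in triplicate.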

[3] = tested on: HeLa (cervical cancer); assay: MTT cell viability assay, HeLa; assay type: cell-based, human; settings: for IC50: Homo sapiens, HeLa, MTT assay, 72 h of incubation; for Selectivity Index (SI) HeLa: IC50 value toward HaCaT cells/IC50 value toward HeLa
How it was run: as §1

[4] = tested on: HaCaT (human keratinocyte cell line); assay: MTT cell viability assay, non-cancerous HaCaT; assay type: cell-based; settings: Homo sapiens, HaCaT, 72 h, 72 h of incubation, non-cancerous keratinocytes
How it was run: as §2

Compound	IC50 ([1]; Homo sapiens, HCT-116, 72 h)	IC50 [2]	IC50 [3]	IC50 [1]	IC50 [4]	Selectivity Index (SI) HCT-116 [1]	Selectivity Index (SI) MCF-7 [2]	Selectivity Index (SI) HeLa [3]
Cc1cc(S(=O)(=O)N=C2NCCN2Cc2ccc(C(F)(F)F)cc2)c(SCc2nc(N)nc(N3CCN(c4ccccc4F)CC3)n2)cc1Cl [Compound 133]	8 ± 0.3 µM	16 ± 0.5 µM	14 ± 1 µM		25 ± 1 µM			
Cc1cc(S(=O)(=O)N=C2NCCN2Cc2ccc(C(F)(F)F)cc2)c(SCc2nc(N)nc(N3CCN(c4cccc(C(F)(F)F)c4)CC3)n2)cc1Cl [Compound 135]	5 ± 0.2 µM	6.5 ± 0.3 µM	7 ± 0.2 µM		19 ± 1 µM			
Cc1cc(S(=O)(=O)N=C2NCCN2Cc2ccc(C(F)(F)F)cc2)c(SCc2nc(N)nc(N3CCN(c4ccc(Cl)cc4)CC3)n2)cc1Cl [Compound 136]	5 ± 0.1 µM	6 ± 0.3 µM	10 ± 0.4 µM		21 ± 1 µM			
Cc1cc(S(=O)(=O)N=C2NCCN2Cc2ccc(C(F)(F)F)cc2)c(SCc2nc(N)nc(N3CCN(c4cccc(Cl)c4)CC3)n2)cc1Cl [Compound 137]	6 ± 0.2 µM	7 ± 0.4 µM	12 ± 0.6 µM		21 ± 1 µM			
COc1ccc(N2CCN(c3nc(N)nc(CSc4cc(Cl)c(C)cc4S(=O)(=O)N=C4NCCN4Cc4ccc(C(F)(F)F)cc4)n3)CC2)cc1 [Compound 139]	6 ± 0.1 µM	13 ± 1 µM	12 ± 1 µM		24 ± 1 µM			
Cc1cc(S(=O)(=O)N=C2NCCN2Cc2ccc(C(F)(F)F)cc2)c(SCc2nc(N)nc(N3CCN(C(c4ccccc4)c4ccccc4)CC3)n2)cc1Cl [Compound 141]	7.5 ± 0.2 µM	9.5 ± 0.5 µM	45 ± 2 µM		180 ± 9 µM			
Cc1cc(S(=O)(=O)N=C2NCCN2Cc2ccc(C(F)(F)F)cc2)c(SCc2nc(N)nc(N3CCC(Cc4ccccc4)CC3)n2)cc1Cl [Compound 142]	4.6 ± 0.1 µM	6.5 ± 0.3 µM	14 ± 0.2 µM		29 ± 1 µM			
Cc1cc(S(=O)(=O)N=C2NCCN2Cc2ccc(C(F)(F)F)cc2)c(SCc2nc(N)nc(N3CC=C(c4ccc(F)cc4)CC3)n2)cc1Cl [Compound 143]	4.6 ± 0.1 µM	6 ± 0.3 µM	7 ± 0.4 µM		19 ± 1 µM			
Cc1cc(S(=O)(=O)N=C2NCCN2Cc2cc(C(F)(F)F)cc(C(F)(F)F)c2)c(SCc2nc(N)nc(Nc3ccccc3)n2)cc1Cl [Compound 146]	11.5 ± 0.5 µM	12.5 ± 0.6 µM	15 ± 1 µM		32 ± 1 µM			
Cc1cc(S(=O)(=O)N=C2NCCN2Cc2cc(C(F)(F)F)cc(C(F)(F)F)c2)c(SCc2nc(N)nc(Nc3ccc(C(F)(F)F)cc3)n2)cc1Cl [Compound 147]	6.5 ± 0.3 µM	8 ± 0.2 µM	15 ± 1 µM		28 ± 1 µM			
Cc1cc(S(=O)(=O)N=C2NCCN2Cc2cc(C(F)(F)F)cc(C(F)(F)F)c2)c(SCc2nc(N)nc(N(C)c3ccc(Cl)cc3)n2)cc1Cl [Compound 149]	11.5 ± 0.6 µM	11 ± 0.5 µM	18 ± 1 µM		33 ± 1 µM			
Cc1cc(S(=O)(=O)N=C2NCCCN2Cc2ccc(C(F)(F)F)cc2)c(SCc2nc(N)nc(N3CCCc4ccccc43)n2)cc1Cl [Compound 158]	5 ± 0.3 µM	8 ± 0.4 µM	6 ± 0.3 µM		17 ± 1 µM			
Cc1cc(S(=O)(=O)N=C2NCCCN2Cc2ccc(C(F)(F)F)cc2)c(SCc2nc(N)nc(N3CCN(c4ccccc4)CC3)n2)cc1Cl [Compound 159]	9 ± 0.5 µM	10 ± 0.3 µM	15.5 ± 0.5 µM		29 ± 1 µM			
Cc1cc(S(=O)(=O)N=C2NCCCN2Cc2ccc(C(F)(F)F)cc2)c(SCc2nc(N)nc(N3CCN(c4cccc(C(F)(F)F)c4)CC3)n2)cc1Cl [Compound 160]	10.5 ± 0.4 µM	12 ± 0.5 µM	8.5 ± 0.3 µM		23 ± 1 µM			
Cc1cc(S(=O)(=O)N=C2NCCCN2Cc2ccc(C(F)(F)F)cc2)c(SCc2nc(N)nc(N3CCN(c4ccc(Cl)cc4)CC3)n2)cc1Cl [Compound 161]	6.5 ± 0.1 µM	6.5 ± 0.2 µM	14 ± 0.5 µM		27 ± 1 µM			

Second part, led by results:

IC50 ([1]; Homo sapiens, HCT-116, 72 h)	IC50 [2]	IC50 [3]	IC50 [1]	Compound	IC50 [4]	Selectivity Index (SI) HCT-116 [1]	Selectivity Index (SI) MCF-7 [2]	Selectivity Index (SI) HeLa [3]
8 ± 0.5 µM	8 ± 0.2 µM	13 ± 0.2 µM		Cc1cc(S(=O)(=O)N=C2NCCN2Cc2cc(C(F)(F)F)cc(C(F)(F)F)c2)c(SCc2nc(N)nc(N3CCc4ccccc43)n2)cc1Cl [Compound 144]	27 ± 1 µM			
13 ± 0.5 µM	13 ± 0.8 µM	16.5 ± 1 µM		Cc1cc(S(=O)(=O)N=C2NCCN2Cc2cc(C(F)(F)F)cc(C(F)(F)F)c2)c(SCc2nc(N)nc(N3CCCc4ccccc43)n2)cc1Cl [Compound 145]	36 ± 1 µM			
9.5 ± 0.2 µM	8.5 ± 0.5 µM	15 ± 1 µM		Cc1cc(S(=O)(=O)N=C2NCCN2Cc2cc(C(F)(F)F)cc(C(F)(F)F)c2)c(SCc2nc(N)nc(NCc3ccccc3)n2)cc1Cl [Compound 148]	29 ± 1 µM			
< 6 µM	4.5 ± 0.2 µM	11 ± 0.3 µM	3.6 ± 0.2 µM	Cc1cc(S(=O)(=O)N=C2NCCN2Cc2cc(C(F)(F)F)cc(C(F)(F)F)c2)c(SCc2nc(N)nc(N3CCN(c4ccccc4)CC3)n2)cc1Cl [Compound 150]	23 ± 1 µM	6.4	5.1	2.0
6 ± 0.1 µM	6 ± 0.1 µM	15 ± 1 µM		Cc1cc(S(=O)(=O)N=C2NCCN2Cc2cc(C(F)(F)F)cc(C(F)(F)F)c2)c(SCc2nc(N)nc(N3CCN(c4ccc(F)cc4)CC3)n2)cc1Cl [Compound 151]	28 ± 1 µM			
6.5 ± 0.3 µM	6.5 ± 0.3 µM	15.5 ± 1 µM		Cc1cc(S(=O)(=O)N=C2NCCN2Cc2cc(C(F)(F)F)cc(C(F)(F)F)c2)c(SCc2nc(N)nc(N3CCN(c4ccccc4F)CC3)n2)cc1Cl [Compound 152]	29 ± 1 µM			
6 ± 0.3 µM	8 ± 0.2 µM	9 ± 0.5 µM		Cc1cc(S(=O)(=O)N=C2NCCN2Cc2cc(C(F)(F)F)cc(C(F)(F)F)c2)c(SCc2nc(N)nc(N3CCN(c4cccc(C(F)(F)F)c4)CC3)n2)cc1Cl [Compound 153]	19 ± 0.5 µM			
5 ± 0.1 µM	6.5 ± 0.2 µM	12 ± 1 µM		Cc1cc(S(=O)(=O)N=C2NCCN2Cc2cc(C(F)(F)F)cc(C(F)(F)F)c2)c(SCc2nc(N)nc(N3CCN(c4ccc(Cl)cc4)CC3)n2)cc1Cl [Compound 154]	26 ± 1 µM			
5 ± 0.1 µM	6 ± 0.1 µM	10 ± 0.1 µM		Cc1cc(S(=O)(=O)N=C2NCCN2Cc2cc(C(F)(F)F)cc(C(F)(F)F)c2)c(SCc2nc(N)nc(N3CCN(c4ccc(Cl)c(Cl)c4)CC3)n2)cc1Cl [Compound 155]	19 ± 1 µM			
4.8 ± 0.1 µM	7.5 ± 0.4 µM	5.5 ± 0.2 µM		Cc1cc(S(=O)(=O)N=C2NCCN2Cc2cc(C(F)(F)F)cc(C(F)(F)F)c2)c(SCc2nc(N)nc(N3CCN(Cc4ccccc4)CC3)n2)cc1Cl [Compound 156]	17 ± 1 µM			
5 ± 0.1 µM	6 ± 0.3 µM	13 ± 0.5 µM		Cc1cc(S(=O)(=O)N=C2NCCN2Cc2cc(C(F)(F)F)cc(C(F)(F)F)c2)c(SCc2nc(N)nc(N3CCC(Cc4ccccc4)CC3)n2)cc1Cl [Compound 157]	23 ± 1 µM	4.6	3.8	1.7
< 6 µM	6 ± 0.2 µM	12.5 ± 0.5 µM	5.5 ± 0.3 µM	Cc1cc(S(=O)(=O)N=C2NCCCN2Cc2ccc(C(F)(F)F)cc2)c(SCc2nc(N)nc(N3CCN(Cc4ccccc4)CC3)n2)cc1Cl [Compound 162]	25 ± 0.7 µM	4.5	4.1	2.0

From article PMC9267128, “New 2-[(4-Amino-6-N-substituted-1,3,5-triazin-2-yl)methylthio]-N-(imidazolidin-2-ylidene)-4-chloro-5-methylbenzenesulfonamide Derivatives, Design, Synthesis and Anticancer Evaluation” (International Journal of Molecular Sciences, 2022)
